SMILES strings stand for the structures. Structures can show the parent of a compound that is named as a salt. Bounds are passed on as bounds.

Common to all, as to type: cell-based
For experiment [1], the system named is Salmonella typhimurium CT 10. Briefly: MIC in nutrient broth. To be noted: Salmonella enterica. The source says: (§1) The minimum inhibitory concentrations (MIC) of the
(§2) compound of Examples 2 and 4 found necessary to prevent
(§3) growth of various bacteria in nutrient broth were as […]

The next experiment relates to Pseudomonas aeruginosa A. Briefly: MIC in nutrient broth.
From the text: as §1, §2, §3

Experiment [2] concerns Escherichia coli JT 39 (R^+). Briefly: MIC in nutrient broth.
From the text: as §1, §2, §3

The subject of experiment [3] is Streptococcus faecalis I. Briefly: MIC in nutrient broth. The following applies: Enterococcus faecalis.
From the text: as §1, §2, §3

In experiment [4] the test system is Serratia marcescens US 20. Briefly: MIC in nutrient broth. The following applies: US20.
From the text: as §1, §2, §3

The next experiment has as its system Escherichia coli 0111. Briefly: MIC in nutrient broth.
From the text: as §1, §2, §3

The subject of experiment [5] is Streptococcus pneumoniae CN 33. Briefly: MIC in nutrient broth. The following applies: CN33.
From the text: as §1, §2, §3

Experiment [6] relates to Staphylococcus aureus Oxford. Briefly: MIC in nutrient broth.
From the text: as §1, §2, §3

Experiment [7] concerns Klebsiella aerogenes A. Briefly: MIC in nutrient broth.
From the text: as §1, §2, §3

The test system of a further experiment is Proteus mirabilis 977. Briefly: MIC in nutrient broth.
From the text: as §1, §2, §3

The next experiment concerns Citrobacter freundii E 8. Briefly: MIC in nutrient broth. The following applies: E8.
From the text: as §1, §2, §3

Experiment [8] has as its system Staphylococcus aureus Russell. Briefly: MIC in nutrient broth.
From the text: as §1, §2, §3

In another experiment the test system is Proteus rettgeri WM 16. Briefly: MIC in nutrient broth. To be noted: Providencia rettgeri, WM16.
From the text: as §1, §2, §3

A further experiment concerns Enterobacter cloacae N 1. Briefly: MIC in nutrient broth. The following applies: N1.
From the text: as §1, §2, §3

The next experiment deals with Shigella sonnei MB 11967. Briefly: MIC in nutrient broth. The following applies: MB11967.
From the text: as §1, §2, §3

In another experiment the test system is Proteus morganii I 580. Briefly: MIC in nutrient broth. To be noted: Morganella morganii, I580.
From the text: as §1, §2, §3

Another experiment relates to Proteus vulgaris W 091. Briefly: MIC in nutrient broth. To be noted: W091.
From the text: as §1, §2, §3

For a further experiment, the system named is Bacillus subtilis A. Briefly: MIC in nutrient broth.
From the text: as §1, §2, §3

Experiment [9] deals with Streptococcus pyogenes CN 10. Briefly: MIC in nutrient broth. To be noted: CN10.
From the text: as §1, §2, §3

Another experiment concerns Enterobacter cloacae N1. Briefly: MIC on agar. The source says: (§4) The Minimum Inhibitory concentrations (MIC) of the compound
(§5) of Example 6 found necessary to prevent growth of various

The test system of experiment [10] is Streptococcus faecalis I. Briefly: MIC on agar. To be noted: Enterococcus faecalis.
From the text: as §4, §5

The test system of another experiment is Proteus mirabilis C977. Briefly: MIC on agar.
From the text: as §4, §5

A further experiment concerns Proteus morganii. Briefly: MIC on agar. The following applies: Morganella morganii.
From the text: as §4, §5

Another experiment has as its system Escherichia coli JT4. Briefly: MIC on agar.
From the text: as §4, §5

Another experiment has as its system Escherichia coli JT425. Briefly: MIC on agar.
From the text: as §4, §5

Experiment [11] deals with Neisseria catarrhalis 1502. Briefly: MIC on agar.
From the text: as §4, §5

The next experiment has as its system Bacillus subtilis. Briefly: MIC on agar.
From the text: as §4, §5

The test system of experiment [12] is Staphylococcus aureus Oxford. Briefly: MIC on agar.
From the text: as §4, §5

The subject of experiment [13] is Klebsiella aerogenes A. Briefly: MIC on agar.
From the text: as §4, §5

The test system of experiment [14] is Staphylococcus aureus Russell. Briefly: MIC on agar.
From the text: as §4, §5

In experiment [15] the test system is Pseudomonas aeruginosa NCTC 10662. Briefly: MIC on agar. To be noted: NCTC10662.
From the text: as §4, §5

In another experiment the test system is Proteus rettgeri. Briefly: MIC on agar. The following applies: Providencia rettgeri.
From the text: as §4, §5

Experiment [16] concerns Streptococcus pyogenes CN10. Briefly: MIC on agar.
From the text: as §4, §5

Another experiment relates to Serratia marcescens US32. Briefly: MIC on agar.
From the text: as §4, §5

The test system of experiment [17] is Pseudomonas aeruginosa Dalgleish. Briefly: MIC on agar.
From the text: as §4, §5

In general, MIC refers to the smallest concentration in the dilution series that meets the test's criterion for growth inhibition. As to `CO/N=C(\C(=O)N[C@@H]1C(=O)N2C(C(=O)O)=C(Cc3ccc(C(=O)O)cc3)CS[C@H]12)c1csc(N)n1` [Example 2, (6R,7R)-3-(4-Carboxybenzyl)-7-[2,Z-methoxyimino-2-(2-aminothiazol-4-yl)-acetamido]ceph-3-em-4-carboxylic acid trifluoroacetic acid salt], the MIC in experiment [1] was 0.4 µg/mL; with Pseudomonas aeruginosa A, greater than 100 µg/mL; in experiment [2], 6.2 µg/mL; against Streptococcus faecalis I [3], greater than 100 µg/mL; in experiment [4] it was 12.5 µg/mL; in the experiment on Escherichia coli 0111 it was 6.2 µg/mL. In addition, the MIC is no more than 0.1 µg/mL in [5]; 12.5 µg/mL in experiment [6]; 0.2 µg/mL in the experiment with Klebsiella aerogenes A [7]; 0.8 µg/mL in the experiment on Proteus mirabilis 977; 25 µg/mL against Citrobacter freundii E 8; 12.5 µg/mL in experiment [8]. The MIC is 12.5 µg/mL with Proteus rettgeri WM 16; 3.1 µg/mL in the experiment with Enterobacter cloacae N 1; 0.4 µg/mL in the experiment with Shigella sonnei MB 11967; 1.6 µg/mL against Proteus morganii I 580; 12.5 µg/mL in the experiment with Proteus vulgaris W 091; 25 µg/mL against Bacillus subtilis A. For the same molecule, the MIC in experiment [9] was no more than 0.1 µg/mL.
For the molecule `CC(C)(O/N=C(\C(=O)N[C@@H]1C(=O)N2C(C(=O)O)=C(Cc3ccc(C(=O)O)cc3)CS[C@H]12)c1csc(N)n1)C(=O)O` [Example 6, (6R,7R)-3-(4-Carboxybenzyl)-7-[2,Z-(2-carboxyprop-2-oxyimino)-2-(2-aminothiazol-4-yl)-acetamido]-ceph-3-em-4-carboxylic acid trifluoroacetic acid salt], the MIC in the experiment with Enterobacter cloacae N1 is 1 µg/mL; in the experiment on Streptococcus faecalis I [10], greater than 100 µg/mL; in the experiment with Proteus mirabilis C977, 0.05 µg/mL; in the experiment with Proteus morganii it was 2.5 µg/mL; in the experiment on Escherichia coli JT4 it was 2.5 µg/mL; against Escherichia coli JT425, 25 µg/mL. The minimum inhibitory concentration (MIC) is less than 0.02 µg/mL in experiment [11]; greater than 100 µg/mL with Bacillus subtilis; 100 µg/mL in experiment [12]; 0.2 µg/mL with Klebsiella aerogenes A [13]; greater than 100 µg/mL in experiment [14]; 5 µg/mL in [15]. Further, the MIC was found to be 0.2 µg/mL in the experiment on Proteus rettgeri, 2.5 µg/mL in experiment [16], 2.5 µg/mL against Serratia marcescens US32 and 2.5 µg/mL in [17].
For `CCO/N=C(\C(=O)N[C@@H]1C(=O)N2C(C(=O)O)=C(Cc3ccc(C(=O)O)cc3)CS[C@H]12)c1csc(N)n1` [Example 4, (6R,7R)-3-(4-Carboxybenzyl)-7-[2,Z-ethoxyimino-2-(2-aminothiazol-4-yl)-acetamido]-ceph-3-em-4-carboxylic acid trifluoroacetic acid salt], the MIC is 0.8 µg/mL in experiment [1]; greater than 100 µg/mL against Pseudomonas aeruginosa A; 1.6 µg/mL in [2]; greater than 100 µg/mL in the experiment with Streptococcus faecalis I [3]; 3.1 µg/mL in experiment [4]; 3.1 µg/mL against Escherichia coli 0111. Moreover, the MIC in [5] was found to be 6.2 µg/mL; in [6], 3.1 µg/mL; in the experiment with Klebsiella aerogenes A [7], 0.1 µg/mL; against Proteus mirabilis 977 it was 0.2 µg/mL; against Citrobacter freundii E 8, 100 µg/mL; in [8], 6.2 µg/mL. Besides, the MIC with Proteus rettgeri WM 16 was 100 µg/mL; against Enterobacter cloacae N 1 it was 50 µg/mL; with Shigella sonnei MB 11967, 0.8 µg/mL; against Proteus morganii I 580, 100 µg/mL; in the experiment with Proteus vulgaris W 091, 3.1 µg/mL; against Bacillus subtilis A, 12.5 µg/mL.

For the origin of these results see patent publication US4460582A, “3-Carboxybenzyl cephems” (Beecham Group P.L.C., priority 1981, dated 1984).
